Consider 22 compounds from patent US12421225B2, “Heteroaromatic amide derivative and medicament containing the same” (KAKEN PHARMACEUTICAL CO., LTD., priority 2018, dated 2025).

In series [1] the test system is male ICR mice. Briefly: Effect on acute pain (capsaicin-induced pain-related behavior, hind paw). It is filed as in vivo. On the procedure: Test Example 3: Effect on Acute Pain
Six-week old male ICR mice were used for the test. Test compounds were orally administered at 1-10 mg/kg and the mice were habituated to a clear observation cage for 60 minutes. The mice were lightly restrained under no anesthesia and 20 μL of 80 μg/mL (0.8% ethanol-saline) capsaicin solution was injected subcutaneously into the plantar surface of rihgt hind paw of mice. The mice were returned to the observation cage and, from just after that, the duration of pain-related behavior (licking, shaking) occurring in the right hind limb was measured as the reaction time for 5 minutes.
The inhibition rate of the test compound was determined by the following calculation formula. Test compound inhibition rate (%)=100×[1−(response time of test compound administered group/response time of vehicle control group)]

Series [2] addresses human Nav1.5 (Homo sapiens (Human), UniProt Q14524). Briefly: Human Nav1.5 inhibitory activity evaluation (automated patch clamp QPatch16X, HEK293 cells stably expressing human Nav1.5). It counts as cell-based. Put shortly: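 IC50 derived from concentration-response of inward current at the 20th of 20 action-potential-mimicking pulses (holding −80 mV, leak corrected with −100 mV step). HEK293 cells stably expressing human Nav1.5, room temperature, extracellular pH 7.4, intracellular CsF-based pH 7.3, 0.1% DMSO.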
Background: In patch-clamp work, channel activity is measured electrically.

Series [3] has as its target human Nav1.7 (Homo sapiens (Human), UniProt Q15858). Briefly: Human Nav1.7 inhibitory activity evaluation (automated patch clamp QPatch16X, HEK293A cells stably expressing human Nav1.7 and human Navβ1). It counts as cell-based. Put shortly: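 IC50 calculated from the concentration-response of inward current evoked by the second −10 mV, 50 ms depolarisation, which follows a 15 s conditioning step at roughly 30-40% inactivation and a 100 ms −120 mV interval. Cells: HEK293A expressing human Nav1.7/Navβ1, automated patch clamp, room temperature, 0.1% DMSO final.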

Series [4] has as its system male ICR mice. Briefly: Effect on a neuropathic pain (L5 spinal nerve cut, von Frey 50% pain threshold). It is filed as in vivo. Conditions: allodynia-developed mice, dose of 10 mg/kg or less, single oral administration. On the procedure: Test Example 4: Effect on a Neuropathic Pain
Five-week old male ICR mice were used for the test. The skin and muscles were incised to expose the sixth lumbar vertebra under isoflurane anesthesia, and the right transverse process was removed. The L5 spinal nerve was isolated from the surrounding tissue to cut out, and then the incision site was sutured.
The 50% pain threshold of the plantar surface was determined by referring to the method of Chaplan S R et al. (J Neurosci Methods 1994, 53: 55-63) using von Frey filaments (0.008 g, 0.02 g, 0.04 g, 0.07 g, 0.16 g, 0.4 g and 0.6 g). First, the mice were placed in a measurement case with a lattice scaffold and habituatedd until the animal settled; 0.07 g of filament was pressed against the plantar surface for about 3 seconds. If withdrawal behavior was observed, the filament with the stimulation intensity one level lower was used to apply stimulation, and conversely, if the withdrawal behavior was not detected, the filament with the stimulation intensity one level higher was used to apply stimulation. By repeating this operation, starting from 2 times before and after the presence or absence of escape behavior changed, the results for a total of 6 times were recorded, to calculate a 50% pain threshold using the following calculation formula. 50% pain threshold (g)=(10^[Xf+κδ]/10000)
Xf is the value of the stimulus intensity of the filament used in the last stimulation (log value), κ is the value derived from the pattern of presence/absence of withdrawal behavior for 6 times, and δ is the difference in stimulus intensity (log value) between the filaments used (here 0.365).

Where [5] appears, read: HEK293 cells stably expressing human Nav1.5, automated patch clamp QPatch16X.
[6] abbreviates: HEK293A cells stably expressing human Nav1.7 and human Navβ1, automated patch clamp QPatch16X.
The mark [7] stands for this setting: human Nav1.5, automated patch clamp.
[8] abbreviates: human Nav1.7, automated patch clamp.

Where a name gives a salt, the structure may show the parent alone.

Chain of human Nav1.7 (Q15858 whole entry): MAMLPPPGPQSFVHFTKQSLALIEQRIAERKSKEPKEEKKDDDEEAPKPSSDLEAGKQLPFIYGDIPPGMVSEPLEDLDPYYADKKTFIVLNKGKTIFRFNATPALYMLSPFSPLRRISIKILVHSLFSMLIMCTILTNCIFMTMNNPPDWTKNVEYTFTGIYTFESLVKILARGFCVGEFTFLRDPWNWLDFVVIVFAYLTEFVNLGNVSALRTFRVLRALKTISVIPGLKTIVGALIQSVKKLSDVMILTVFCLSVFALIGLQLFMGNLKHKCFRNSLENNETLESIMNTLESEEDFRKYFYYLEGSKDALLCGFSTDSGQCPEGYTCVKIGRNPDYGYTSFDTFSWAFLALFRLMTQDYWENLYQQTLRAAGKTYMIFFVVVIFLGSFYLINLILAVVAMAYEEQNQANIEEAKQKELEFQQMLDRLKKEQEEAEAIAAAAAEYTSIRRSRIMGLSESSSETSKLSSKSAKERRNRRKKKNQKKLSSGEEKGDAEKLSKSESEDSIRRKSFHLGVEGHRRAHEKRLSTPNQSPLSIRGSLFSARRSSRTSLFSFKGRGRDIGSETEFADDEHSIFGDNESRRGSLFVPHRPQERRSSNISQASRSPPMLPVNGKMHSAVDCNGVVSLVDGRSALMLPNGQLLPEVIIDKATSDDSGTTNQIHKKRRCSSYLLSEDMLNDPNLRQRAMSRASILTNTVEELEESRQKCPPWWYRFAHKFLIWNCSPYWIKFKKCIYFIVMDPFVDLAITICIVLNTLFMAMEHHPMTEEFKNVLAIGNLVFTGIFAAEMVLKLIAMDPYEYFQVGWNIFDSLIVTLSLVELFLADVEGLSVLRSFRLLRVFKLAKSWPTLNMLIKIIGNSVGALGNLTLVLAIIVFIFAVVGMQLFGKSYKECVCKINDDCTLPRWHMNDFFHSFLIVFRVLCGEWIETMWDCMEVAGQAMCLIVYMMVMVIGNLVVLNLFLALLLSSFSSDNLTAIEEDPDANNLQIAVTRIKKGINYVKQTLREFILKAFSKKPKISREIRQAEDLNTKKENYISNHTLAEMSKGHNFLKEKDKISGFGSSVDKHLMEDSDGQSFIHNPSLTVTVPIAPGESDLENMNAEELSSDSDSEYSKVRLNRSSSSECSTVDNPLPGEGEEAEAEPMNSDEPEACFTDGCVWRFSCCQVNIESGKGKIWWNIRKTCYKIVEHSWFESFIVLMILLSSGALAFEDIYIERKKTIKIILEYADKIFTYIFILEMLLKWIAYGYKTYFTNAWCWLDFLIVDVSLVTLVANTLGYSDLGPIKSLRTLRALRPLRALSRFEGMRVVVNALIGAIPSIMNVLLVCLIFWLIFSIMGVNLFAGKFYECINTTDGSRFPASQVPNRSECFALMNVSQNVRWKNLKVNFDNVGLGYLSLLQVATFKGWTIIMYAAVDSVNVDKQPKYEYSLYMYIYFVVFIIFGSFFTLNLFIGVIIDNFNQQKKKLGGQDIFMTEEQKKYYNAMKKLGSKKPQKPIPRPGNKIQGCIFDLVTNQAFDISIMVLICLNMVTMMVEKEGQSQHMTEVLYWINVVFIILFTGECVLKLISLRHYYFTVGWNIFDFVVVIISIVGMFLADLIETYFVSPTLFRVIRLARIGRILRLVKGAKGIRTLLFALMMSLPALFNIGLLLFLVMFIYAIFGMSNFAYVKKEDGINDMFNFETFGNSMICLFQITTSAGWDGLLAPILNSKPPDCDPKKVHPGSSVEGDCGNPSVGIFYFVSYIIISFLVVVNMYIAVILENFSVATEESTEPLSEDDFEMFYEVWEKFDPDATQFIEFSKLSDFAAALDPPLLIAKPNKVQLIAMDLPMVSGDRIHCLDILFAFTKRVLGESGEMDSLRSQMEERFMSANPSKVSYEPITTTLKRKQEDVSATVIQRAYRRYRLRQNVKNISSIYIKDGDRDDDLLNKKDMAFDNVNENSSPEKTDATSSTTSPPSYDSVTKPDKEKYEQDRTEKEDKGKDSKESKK
Chain of human Nav1.7 (Q07699 19-218 partner): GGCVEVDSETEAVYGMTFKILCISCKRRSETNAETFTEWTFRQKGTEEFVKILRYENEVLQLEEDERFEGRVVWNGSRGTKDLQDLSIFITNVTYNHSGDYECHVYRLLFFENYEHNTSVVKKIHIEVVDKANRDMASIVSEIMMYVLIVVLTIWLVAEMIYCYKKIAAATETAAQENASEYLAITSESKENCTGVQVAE
Chain of human Nav1.5 (Q14524 whole entry): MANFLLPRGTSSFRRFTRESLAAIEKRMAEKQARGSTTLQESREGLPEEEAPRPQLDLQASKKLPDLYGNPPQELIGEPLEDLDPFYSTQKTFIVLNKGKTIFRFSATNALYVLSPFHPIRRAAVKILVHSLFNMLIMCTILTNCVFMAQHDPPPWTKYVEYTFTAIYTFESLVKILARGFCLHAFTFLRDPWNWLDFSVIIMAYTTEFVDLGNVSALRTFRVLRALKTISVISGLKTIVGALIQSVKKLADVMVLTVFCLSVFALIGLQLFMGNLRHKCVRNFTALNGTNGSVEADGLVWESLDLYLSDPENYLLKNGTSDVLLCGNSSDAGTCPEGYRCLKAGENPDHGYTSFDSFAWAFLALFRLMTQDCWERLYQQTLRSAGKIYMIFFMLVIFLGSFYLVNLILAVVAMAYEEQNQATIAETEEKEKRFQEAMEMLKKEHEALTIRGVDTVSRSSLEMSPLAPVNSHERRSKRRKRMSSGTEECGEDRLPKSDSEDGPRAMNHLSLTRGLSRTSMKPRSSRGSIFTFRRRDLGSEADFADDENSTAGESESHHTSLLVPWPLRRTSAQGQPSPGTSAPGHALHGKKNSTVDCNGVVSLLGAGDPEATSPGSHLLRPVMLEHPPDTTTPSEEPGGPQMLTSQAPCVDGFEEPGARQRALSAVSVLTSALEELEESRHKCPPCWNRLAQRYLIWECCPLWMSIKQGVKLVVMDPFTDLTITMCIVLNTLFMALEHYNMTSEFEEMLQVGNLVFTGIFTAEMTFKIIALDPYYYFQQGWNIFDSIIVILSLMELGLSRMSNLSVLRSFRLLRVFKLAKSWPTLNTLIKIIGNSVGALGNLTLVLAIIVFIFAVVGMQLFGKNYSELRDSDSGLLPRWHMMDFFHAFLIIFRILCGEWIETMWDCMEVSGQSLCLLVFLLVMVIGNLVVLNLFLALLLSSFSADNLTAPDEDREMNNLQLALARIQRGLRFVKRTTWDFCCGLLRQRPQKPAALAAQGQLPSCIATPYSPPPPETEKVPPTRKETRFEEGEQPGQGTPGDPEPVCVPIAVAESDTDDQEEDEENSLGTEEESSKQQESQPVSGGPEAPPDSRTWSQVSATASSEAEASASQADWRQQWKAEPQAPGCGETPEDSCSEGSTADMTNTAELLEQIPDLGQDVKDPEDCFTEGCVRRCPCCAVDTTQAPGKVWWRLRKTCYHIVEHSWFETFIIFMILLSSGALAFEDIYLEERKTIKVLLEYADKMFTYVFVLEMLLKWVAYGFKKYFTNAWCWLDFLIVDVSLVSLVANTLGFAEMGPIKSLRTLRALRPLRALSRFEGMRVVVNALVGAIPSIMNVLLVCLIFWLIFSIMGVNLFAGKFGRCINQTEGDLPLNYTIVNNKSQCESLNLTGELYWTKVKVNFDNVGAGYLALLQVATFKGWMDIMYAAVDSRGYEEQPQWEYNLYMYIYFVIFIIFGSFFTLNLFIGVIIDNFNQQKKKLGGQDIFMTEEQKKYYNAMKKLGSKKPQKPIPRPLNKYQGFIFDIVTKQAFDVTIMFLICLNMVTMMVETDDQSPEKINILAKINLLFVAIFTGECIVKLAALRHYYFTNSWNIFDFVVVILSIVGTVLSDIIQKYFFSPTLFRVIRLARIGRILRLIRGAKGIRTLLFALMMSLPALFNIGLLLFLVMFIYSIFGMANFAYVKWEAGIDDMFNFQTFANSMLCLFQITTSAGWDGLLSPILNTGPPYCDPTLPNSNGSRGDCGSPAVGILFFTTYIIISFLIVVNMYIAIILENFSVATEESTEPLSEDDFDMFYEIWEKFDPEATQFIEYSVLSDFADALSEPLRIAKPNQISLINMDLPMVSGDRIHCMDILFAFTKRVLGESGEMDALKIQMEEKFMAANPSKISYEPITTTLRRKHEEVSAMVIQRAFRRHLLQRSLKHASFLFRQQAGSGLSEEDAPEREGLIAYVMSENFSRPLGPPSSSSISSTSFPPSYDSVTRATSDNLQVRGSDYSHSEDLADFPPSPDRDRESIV

For the compound `COc1cc(C2CCn3nc(C(=O)N[C@H]4COc5ccc(C#N)cc5C4)cc3O2)ccn1` (single isomer, unassigned) [74 (isomer A)], in series [1], the “Inhibition rate (%)” value is on record as “A (Compounds with an inhibition rate of 30% or more are indicated by the letter “A”)”. Further, the half-maximal inhibitory concentration (IC50) in series [2] (setting [5]) was not below 3000 nM; in series [3] (setting [6]), less than 1000 nM.

With `CCCOCC1CCn2nc(C(=O)N[C@H]3COc4ccc(C#N)cc4C3)cc2O1` (single isomer, unassigned) [101 (isomer A)], in series [1], the “Inhibition rate (%)” value is reported as “C (compounds with an inhibition rate of 10% or more but less than 20% is indicated by the letter “C”)”. Also, the results for the half-inhibitory concentration (IC50) in series [2] (setting [5]) and in series [3] (setting [6]) were not below 3000 nM and less than 1000 nM, respectively.

For `N#Cc1ccc2c(c1)C[C@@H](NC(=O)c1cc3n(n1)CCC(COCC1CC1)O3)CO2` (single isomer, unassigned) [103 (isomer A)], in series [4], the “50% pain threshold (antiallodynic effect)” value (from here on “50% pain threshold”) was “increased the 50% pain threshold”. The “Inhibition rate (%)” value in series [1] is recorded as “A (Compounds with an inhibition rate of 30% or more are indicated by the letter “A”)”. In addition, the IC50 is not below 3000 nM in series [2] (setting [5]) and less than 1000 nM in series [3] (setting [6]).

For the compound `N#Cc1ccc2c(c1)C[C@@H](NC(=O)c1cc3n(n1)CCC(COCC(F)(F)F)O3)CO2` (single isomer, unassigned) [115 (isomer A)], the “Inhibition rate (%)” value in series [1] was “A (Compounds with an inhibition rate of 30% or more are indicated by the letter “A”)”. The half-inhibitory concentration (IC50) is not below 3000 nM in series [2] (setting [5]) and less than 10000 nM in series [3] (setting [6]).

`O=C(N[C@H]1COc2ccc(COCC(F)(F)F)cc2C1)c1cc2n(n1)CCC(COCC(F)(F)F)O2` (single isomer, unassigned) [129 (isomer A)]: the “Inhibition rate (%)” value in series [1] is recorded as “A (Compounds with an inhibition rate of 30% or more are indicated by the letter “A”)”. For the same compound, the figures for the IC50 in series [2] (setting [5]) and in series [3] (setting [6]) were not below 3000 nM and less than 1000 nM, respectively.

As for `N#Cc1ccc2c(c1)C[C@@H](NC(=O)c1cc3n(n1)CCC(COC(F)(F)F)O3)CO2` (single isomer, unassigned) [134 (isomer A)], in series [4], the “50% pain threshold” value is “increased the 50% pain threshold”. Further, in series [1], the “Inhibition rate (%)” value is given as “A (Compounds with an inhibition rate of 30% or more are indicated by the letter “A”)”. Moreover, the values for the IC50 in series [2] (setting [5]) and in series [3] (setting [6]) were 1000 to 3000 nM and less than 1000 nM, respectively.

Take `N#Cc1ccc2c(c1)C[C@@H](NC(=O)c1cc3n(n1)CCC(CCOC(F)(F)F)O3)CO2` (single isomer, unassigned) [144 (isomer B)]: the “Inhibition rate (%)” value in series [1] is “A (Compounds with an inhibition rate of 30% or more are indicated by the letter “A”)”. In series [2] (setting [7]), the half-maximal inhibitory concentration (IC50) is not below 3000 nM.

Take `O=C(N[C@H]1COc2ccc(C(F)(F)F)cc2C1)c1cc2n(n1)CCC(C(F)F)O2` (single isomer, unassigned) [161 (isomer A)]: the “50% pain threshold” value in series [4] was “increased the 50% pain threshold”. In series [1], the “Inhibition rate (%)” value is recorded as “A (Compounds with an inhibition rate of 30% or more are indicated by the letter “A”)”. The IC50 in series [2] (setting [7]) was not below 3000 nM; in series [3] (setting [8]), less than 1000 nM.

In the case of `COc1ncc(-c2ccc3c(c2)C[C@@H](NC(=O)c2cc4n(n2)CC(CCOCC2CC2)O4)CO3)cn1` (single isomer, unassigned) [204 (isomer A)], the “Inhibition rate (%)” value in series [1] is recorded as “A (Compounds with an inhibition rate of 30% or more are indicated by the letter “A”)”. Also, the concentration for half-maximal inhibition (IC50) is not below 3000 nM in series [2] (setting [7]) and less than 1000 nM in series [3] (setting [8]).

Regarding `Cn1ccc(-c2ccc3c(c2)C[C@@H](NC(=O)c2cc4n(n2)CC(CCOC(F)(F)F)O4)CO3)n1` (single isomer, unassigned) [213 (isomer B)], the “Inhibition rate (%)” value in series [1] was “B (compounds with an inhibition rate of 20% or more and less than 30% are indicated by the letter “B”)”.

Regarding `N#Cc1ccc2c(c1)C[C@@H](NC(=O)c1cc3n(n1)CC(CCSCC(F)(F)F)O3)CO2` (single isomer, unassigned) [244 (isomer A)], the “Inhibition rate (%)” value in series [1] is “B (compounds with an inhibition rate of 20% or more and less than 30% are indicated by the letter “B”)”. In addition, the IC50 in series [2] (setting [7]) is 1000 to 3000 nM; in series [3] (setting [8]) it was less than 1000 nM.

For the compound `CCC1CCn2nc(C(=O)N[C@H]3COc4ccc(C#N)cc4C3)cc2O1` (single isomer, unassigned) [Example 92 (isomer A)], the “Inhibition rate (%)” value in series [1] is given as “A (Compounds with an inhibition rate of 30% or more are indicated by the letter “A”)”. In addition, the half-maximal inhibitory concentration (IC50) is not below 3000 nM in series [2] (setting [5]) and less than 1000 nM in series [3] (setting [6]).

`CCC1CCn2nc(C(=O)N[C@H]3COc4ccc(C#N)cc4C3)cc2O1` (single isomer, unassigned) [Example 92 (isomer B)]: the “Inhibition rate (%)” value in series [1] is “A (Compounds with an inhibition rate of 30% or more are indicated by the letter “A”)”.

Consider `O=C(N[C@H]1COc2ccc(Cl)cc2C1)c1cn2c(n1)CCC(C(F)(F)F)C2` (single isomer, unassigned; isomer a) [Example 288, hydrochloride], for which, in series [1], the “Inhibition rate (%)” value was “A (Compounds with an inhibition rate of 30% or more are indicated by the letter “A”)”.

`O=C(N[C@H]1COc2ccccc2C1)c1cn2c(n1)CCC(OCC(F)(F)F)C2` (stereo partly drawn) [Example 37, N—((R)-chroman-3-yl)-6-(2,2,2-trifluoroethoxy)-5,6,7,8-tetrahydroimidazo[1,2-a]pyridine-2-carboxamide]: the “Inhibition rate (%)” value in series [1] was “B (compounds with an inhibition rate of 20% or more and less than 30% are indicated by the letter “B”)”. The IC50 in series [2] (setting [5]) is not below 3000 nM; in series [3] (setting [6]), less than 10000 nM.

In the case of `O=C(N[C@H]1COc2ccc(C(F)F)cc2C1)c1cn2c(n1)CCC(OCC(F)(F)F)C2` (stereo partly shown) [Example 40], the “Inhibition rate (%)” value in series [1] was “B (compounds with an inhibition rate of 20% or more and less than 30% are indicated by the letter “B”)”. Also, the IC50 is not below 3000 nM in series [2] (setting [5]) and less than 10000 nM in series [3] (setting [6]).

As for `O=C(N[C@H]1COc2ccccc2C1)c1cn2c(n1)CNC(c1ccc(F)c(F)c1)C2` (stereo partly shown) [Example 44], in series [1], the “Inhibition rate (%)” value was “A (Compounds with an inhibition rate of 30% or more are indicated by the letter “A”)”. Besides, the half-inhibitory concentration (IC50) was not below 3000 nM in series [2] (setting [5]) and less than 10000 nM in series [3] (setting [6]).

Consider `O=C(NCCc1cccc(C(F)(F)F)c1)c1cn2c(n1)CNC(c1ccccc1)C2` (stereo not shown) [Example 48], for which the “Inhibition rate (%)” value in series [1] was “A (Compounds with an inhibition rate of 30% or more are indicated by the letter “A”)”. The IC50 in series [2] (setting [5]) is not below 3000 nM; in series [3] (setting [6]), less than 10000 nM.

Turning to `O=C(c1cn2c(n1)CNC(c1ccccc1)C2)N1CCC(c2cccc(C(F)(F)F)c2)C1` (stereo not shown) [Example 60], the “Inhibition rate (%)” value in series [1] was “B (compounds with an inhibition rate of 20% or more and less than 30% are indicated by the letter “B”)”. Also, the half-maximal inhibitory concentration (IC50) was not below 3000 nM in series [2] (setting [5]) and less than 10000 nM in series [3] (setting [6]).

For the compound `O=C(c1cn2c(n1)CNC(c1ccccc1)C2)N1CCOC(c2cccc(C(F)(F)F)c2)C1` (stereo not shown) [Example 61], the “Inhibition rate (%)” value in series [1] is “B (compounds with an inhibition rate of 20% or more and less than 30% are indicated by the letter “B”)”. For the same compound, the IC50 in series [2] (setting [5]) was not below 3000 nM; in series [3] (setting [6]) it was less than 10000 nM.

For the compound `O=C(N[C@H]1COc2ccc(C(F)(F)F)cc2C1)c1nn2c(c1-c1ccccn1)COCC2` [Example 260, (R)-3-(pyridin-2-yl)-N-(6-(trifluoromethyl)chroman-3-yl)-6,7-dihydro-4H-pyrazolo[5,1-c][1,4]oxazine-2-carboxamide], the “Inhibition rate (%)” value in series [1] is recorded as “A (Compounds with an inhibition rate of 30% or more are indicated by the letter “A”)”. Further, the figures for the IC50 in series [2] (setting [7]) and in series [3] (setting [8]) were not below 3000 nM and less than 1000 nM, respectively.

For `N#Cc1ccc2c(c1)C[C@@H](NC(=O)c1cc3n(n1)CCN(Cc1ccc(F)cc1)C3)CO2` [Example 290, (R)—N-(6-cyanochroman-3-yl)-5-(4-fluorobenzyl)-4,5,6,7-tetrahydropyrazolo[1,5-a]pyrazine-2-carboxamide hydrochloride], the “50% pain threshold” value in series [4] is recorded as “increased the 50% pain threshold”. Also, in series [1], the “Inhibition rate (%)” value is reported as “A (Compounds with an inhibition rate of 30% or more are indicated by the letter “A”)”.

The IC50 is the point on the concentration scale where inhibition reaches its midpoint. A high value points to a need for much substance.
